Results taken from ChEMBL document CHEMBL1201862, “PubChem BioAssay data set” (2004).
Active and inactive are the calls of the source.

Key:
[1] = Luminescence-based cell-based high throughput dose response assay to identify activators of the DAF-12 from the parasite S. stercoralis (ssDAF-12).; type: functional
[2] = biological target: T1, Oxysterols receptor LXR-beta (Homo sapiens, UniProt P55055); experiment: LXR agonists, Gal4 luciferase reporter, dose response, counter-screen for ssDAF-12 agonist project, cell-based, luminescence, HEK293, S. stercoralis campaign (AID 720737); type: functional; conditions: read-out: IC50 (the source's name)
T1 sequence (P55055 whole entry): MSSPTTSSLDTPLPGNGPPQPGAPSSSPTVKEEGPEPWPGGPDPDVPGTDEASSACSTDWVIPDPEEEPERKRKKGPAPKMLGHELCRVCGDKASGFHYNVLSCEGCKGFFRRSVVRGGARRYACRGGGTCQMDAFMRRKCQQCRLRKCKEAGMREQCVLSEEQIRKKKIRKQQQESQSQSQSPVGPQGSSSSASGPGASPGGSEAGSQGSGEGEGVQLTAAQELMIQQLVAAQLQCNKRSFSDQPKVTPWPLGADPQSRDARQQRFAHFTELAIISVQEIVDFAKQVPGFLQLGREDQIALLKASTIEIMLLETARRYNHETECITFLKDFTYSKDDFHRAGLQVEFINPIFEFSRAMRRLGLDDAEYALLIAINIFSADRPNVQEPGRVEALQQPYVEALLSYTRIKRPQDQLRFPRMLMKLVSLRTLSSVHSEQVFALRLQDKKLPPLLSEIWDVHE

[3] = Luminescence Cell-Based Dose Response to Identify Activators of 5'UTR Stem-Loop Driven Prion Protein mRNA Translation in H4-C Neuroglioblastoma Cells. [Related pubchem assays: 1829 (Project Summary), 1814 (Primary HTS)]; type: functional
[4] = Luminescence Cell-Based Dose Response HTS to Identify Activators of Luciferase Translation or Activity in H4 […] Cells. [Related pubchem assays: 1829 (Project Summary), 1814 (Primary HTS)]; type: functional
[5] = Luminescence Cell-Based Dose Response to Identify Activators of Luciferase Translation or Activity in H4-C Neuroglioblastoma Cells. [Related pubchem assays: 1829 (Project Summary), 1814 (Primary HTS)]; type: functional
[6] = Luminescence Cell-Based Dose Confirmation to Identify Activators of 5'UTR Stem-Loop Driven Alpha-Synuclein mRNA Translation in H4 Neuroglioblastoma Cells. [Related pubchem assays: 1829 (Project Summary), 1814 (Primary HTS)]; type: functional
[7] = Trypanosoma cruzi growth suppression in host cells – NIH3T3 host cells, beta-gal luminescence, confirmation (AID 2044); type: functional, cell-based;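 note: intracellular parasites grown in NIH/3T3 mouse fibroblasts as host cells; luminescent beta-galactosidase reporter signal from transgenic T. cruzi replicating inside host cells; inhibitors lower the luminescence signal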
[8] = NIH3T3 cell viability loss – ATP luminescence, mouse fibroblasts, counter-screen, dose response (AID 2010); type: functional, cell-based;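 note: cells exposed to compound for about 90 hours before reading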
[9] = activation of miR-122 Renilla sensor silencing – cell-based, Huh7 psiCHECK-miR122, Renilla luciferase, cherry-picked, dose response (AID 651956); type: functional;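 note: huh7 hepatoma cells stably carrying a psiCHECK-2 miR-122 sensor plasmid; renilla luciferase signal reporting endogenous miR-122 activity after 48 h compound exposure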
Paired box protein Pax-8 = Paired box protein Pax-8 (Homo sapiens, UniProt Q06710); experiment: PAX8 transcriptional activity inhibition in RMG-I – RMG-I cells, luciferase, cherry-pick, dose response (AID 687027); type: functional, cell-based;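 note: luciferase reporter driven by Pax8 target thyroperoxidase promoter measured by SteadyGlo luminescence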
[10] = viability loss in A549 lung cells – cell-based, 24 h, CellTiter-Glo luminescence, cherry-picks, cytotoxicity control, dose response (AID 1053115); type: functional; conditions: A549, 24 h
[11] = general mammalian cell viability loss – inhibitor set, cherry-pick, set 2, cytotoxicity control for miR-122 modulator project, dose response (AID 720697); type: functional, cell-based
[12] = general mammalian cell viability loss – activator set, cherry-pick, cytotoxicity control for miR-122 modulator project, dose response (AID 720690); type: functional, cell-based;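 note: HEK293T human cells scored for general mammalian cytotoxicity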
[13] = lung carcinoma cell viability loss – CellTiter-Glo luminescence, dry powder, set 17, dose response (AID 1117284); type: functional, cell-based; conditions: A549
[14] = HIV-1 AD8 envelope cell-cell fusion blockers – cherry-pick, dose response (AID 652062); type: functional, cell-based;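 note: luciferase signal from cell-cell fusion driven by HIV-1 clade B AD8 Env; potency is for inhibitors of fusion seen as a drop in luminescence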
[15] = growth inhibition of yeast DHODH-expressing 3D7 parasites – SYBR Green, dry powder samples, dose response (AID 1159570); type: functional, cell-based;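 note: parasite growth measured after 72 hours of compound exposure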
[16] = toxicity to human HepG2 hepatoma cells – cell-based, plate reader, dry powder samples, cytotoxicity control, dose response (AID 1159569); type: functional;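 note: inhibitor potency with signal falling toward the positive control level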
[17] = Dd2 parasite growth inhibition in erythrocytes – SYBR Green, dry powder samples, set 9, dose response (AID 1159568); type: functional, cell-based
[18] = P. falciparum Dd2 growth inhibitors, dose response, SYBR Green, cherry-picked samples (AID 1159567); type: functional, cell-based
[19] = Dd2 malaria parasite growth inhibition potency – SYBR Green, dry powder samples, dose response (AID 1159566); type: functional, cell-based;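 note: potency for growth inhibition with lower SYBR green DNA signal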
[20] = growth inhibition of PfATP4-mutant resistant parasites – NITD609-resistant line, SYBR Green, dry powder, dose response (AID 1159571); type: functional, cell-based;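 note: parasites synchronized at ring stage by sorbitol before testing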
[21] = toxicity to human hepatoma HepG2 cells – cell-based, cherry-picked samples, cytotoxicity control, dose response (AID 1159577); type: functional

Paired box protein Pax-8, sequence (Q06710 whole entry): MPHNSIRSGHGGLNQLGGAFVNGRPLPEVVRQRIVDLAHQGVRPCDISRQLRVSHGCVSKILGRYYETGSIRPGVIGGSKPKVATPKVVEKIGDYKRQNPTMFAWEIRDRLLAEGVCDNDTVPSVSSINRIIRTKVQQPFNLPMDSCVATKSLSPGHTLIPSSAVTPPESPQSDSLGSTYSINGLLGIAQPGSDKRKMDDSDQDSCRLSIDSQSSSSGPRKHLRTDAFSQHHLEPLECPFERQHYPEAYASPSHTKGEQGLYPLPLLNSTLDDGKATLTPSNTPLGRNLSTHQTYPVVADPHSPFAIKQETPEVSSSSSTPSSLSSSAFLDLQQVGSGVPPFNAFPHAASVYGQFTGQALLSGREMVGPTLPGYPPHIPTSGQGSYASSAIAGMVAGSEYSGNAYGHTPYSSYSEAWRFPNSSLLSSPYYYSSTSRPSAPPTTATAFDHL

For Cc1nn(CC(=O)OC(C)C(=O)Nc2ccccc2[N+](=O)[O-])c(C)c1[N+](=O)[O-] (stereo not drawn), the IC50 [1] was > 67.5 µM (inactive) and the EC50 [2] was > 67.5 µM (inactive).
For CCOC(=O)c1c(C)[nH]c(N=Nc2ccc(C)cc2)c1C, the EC50 [3] was 0.305 µM (active), the EC50 [4] was < 0.1 µM (active) and the EC50 [5] was 0.3 µM (active). For the same molecule, the EC50 [6] was 0.387 µM (active).
With O=C(C1CCCN(Cc2ccc(Cl)cc2)C1)N1CCCCC1 (stereo not drawn) the EC50 [7] was < 0.1 µM (active), the EC50 [8] was > 30 µM (not active) and the EC50 (cells) was 0.055 µM (active).
With C[C@H](O)C#Cc1ccc2c(c1)O[C@H](CN(C)Cc1ccc(-c3ccccc3)cc1)[C@@H](C)CN([C@H](C)CO)S2(=O)=O the AC50 [9] was 6.13 µM (active), the AC50 (Paired box protein Pax-8) was 15.9 µM (active) and the AC50 [10] was 59.6 µM (active). The AC50 [11] was 7.51 µM (active), the AC50 [12] was 16.7 µM (active) and the AC50 [13] was 35.1 µM (active).
For C[C@@H]1CN([C@H](C)CO)S(=O)(=O)c2ccc(C#C[C@@H](C)O)cc2O[C@H]1CN(C)Cc1ccc(-c2ccccc2)cc1, the AC50 [10] was > 60 µM (inactive) and the AC50 [13] was > 52 µM (inactive).
With CCCNC(=O)N1[C@H](C#N)[C@H](c2ccc(-c3cccc(OC)c3)cc2)[C@@H]1CO the AC50 [14] was 25.5 µM (active), the AC50 [15] was 1.4 µM (active) and the AC50 [16] was 90.7 µM (active). The AC50 [17] was 0.171 µM (active), the AC50 [18] was 0.56 µM (active) and the AC50 [19] was 0.168 µM (active). The AC50 [20] was 0.278 µM (active).
For Cn1/c(=N\C(=O)c2ccco2)sc2ccccc21, the IC50 [1] was > 67.5 µM (inactive) and the EC50 [2] was > 67.5 µM (inactive).
In the case of COc1ccc2c3c(n(C)c2c1)[C@@H](CO)NCC31CN(Cc2ccc(-c3ccccn3)cc2)C1, the AC50 [18] is reported as 1.66 µM (active) and the AC50 [21] is reported as 20.4 µM (active).
